Laboratory results taken from a melting point compilation (Tetko et al.; mined from patent text by program, amines drawn as free bases though some values may be those of a salt).

SMILES | melting point [°C]
COC(=O)C1=C(C)NC(C)=C(C(=O)OCC(C)(C)CN(C)C)C1c1cccc([N+](=O)[O-])c1Cl (configuration not stated) | 167 to 169
CC(N=C(NN)NN)C(=O)O (configuration not stated) | 175 to 177
CCCCCCCCCCCCCCCCCC(=O)c1cc(C(=O)O)ccc1O | 170
CCOC(=O)CCn1c(-c2ccccc2)c(-c2ccccc2)n(-c2ccccc2)c1=O | 111 to 112
Nc1c(-c2ccc(O)cc2)nnn1-c1ccc(C(F)(F)F)cc1Cl | 161 to 162
O=C(O)C1=Cc2cc(Cl)c(Oc3cccc(Cl)c3)cc2OC1C(F)(F)F (configuration not stated) | 174 to 176
CNC(=O)C=C1CSc2c(C(=O)OC(C)C)c(C)cn21 | 173 to 175
CCCN(C(=O)OC(C)(C)C)C(CC(C)C)C(=O)NCC(=O)Oc1c(Cl)c(Cl)c(Cl)c(Cl)c1Cl (configuration not stated) | 151 to 153
O=C(NCC1CCN(C(c2ccccc2)c2ccccc2)CC1)c1cc(F)ccc1[N+](=O)[O-] | 164 to 166
COc1ccc(Cn2c(=O)c3c(c4ccccc42)OC(C)(C)[C@@H](Br)[C@@H]3O)cc1 (relative stereo) | 146 to 147
NC1CCCC(C(=O)N2CCC(c3[nH]nc4c3C(=O)c3c(NC(=O)NN5CCOCC5)cccc3-4)CC2)C1 (configuration not stated) | 201 to 203
CCOC(=O)C1CCCN(C(=O)CCn2cnc3c(=O)[nH]cnc32)C1 (configuration not stated) | 171 to 175
Fc1ccccc1C1=CCc2nnc(-c3ccncc3)n2-c2ccc(Cl)cc21 | 198 to 200
Nc1ccc(Sc2c(O)c3c(=O)n(-c4ccccc4)c4ccccc4c3oc2=O)cc1 | > 300
CCOP(=O)(OCC)N1CC2(C(=O)OC)COc3cc(C(F)(F)F)ccc3C2=N1 (configuration not stated) | 85 to 86
Cc1noc(NS(=O)(=O)c2ccccc2-c2ccc(-c3ncco3)cc2CN2CCN(C(C)C)C2=O)c1C | 105 to 110
COc1ccc(CC[C@H]2CNCCN2)cc1 | 125 to 130
COc1ccc([C@@H]2OC(=O)[C@H](C)N2C(=O)OCc2ccccc2)cc1 | 97 to 99
C=C(c1ccccc1)C(c1ccc(F)cc1)C(O)n1ncnc1S (configuration not stated) | 54 to 58
N#Cc1ccc(O)c(I)c1 | 144 to 146
CN(C)c1ccc(NC(=O)N(Cc2ccco2)C[C@@H]2CCC[C@H](CN(Cc3ccco3)C(=O)Nc3ccc(N(C)C)cc3)C2)cc1 | 68 to 73
CC1(C)[C@H](/C=C/Cl)[C@@H]1C(=O)O (relative stereo) | 103 to 105
O=C(NCC(F)(F)F)C1c2cc(F)ccc2-c2c(CCCCN3CCC(N4C(=O)c5ccccc5C4=O)CC3)cc(F)cc21 (configuration not stated) | 186 to 188

SMILES | melting point [°C]
CN(C)c1cccc(-c2cccc(-c3ccnc4c(C(=O)c5cccs5)cnn34)c2)c1 | 167 to 169
COc1c(C(C)(C)C)cc(C(C)=O)c(O)c1Br | 69 to 71
O=C1c2cc(OC(F)F)ccc2CN1c1ccc2c(c1)CCC2 | 137 to 139
C=CC1CN(c2ncc(C(=O)N(CCCCC)c3cccc(C(F)(F)F)c3)c(N)n2)C(=O)N1 (configuration not stated) | 135 to 137
C#CCn1cc(F)c(SC)nc1=O | 101 to 102
COc1cccc(C23CCCC=C2C(=O)N(C)C(=O)C3)c1 (configuration not stated) | 139 to 141
CCC[C@H]1CC[C@H](c2ncc(C#N)cn2)CC1 | 74
CN(c1cccc2cc(C3=NCC(CC(N)=O)S3)[nH]c12)S(=O)(=O)c1ccccn1 (configuration not stated) | 149 to 150
COc1cccc2c1OC1C3CCC4(C(=O)N(CC5CC5)CCC214)C(C(C)(O)C(C)(C)C)C3 (configuration not stated) | 205 to 206
CC(CCCCCC(C)NC(=O)c1ccc(OC(F)(F)F)cc1)NC(=O)c1ccc(OC(F)(F)F)cc1 (configuration not stated) | 156 to 160
O=C(C1=C(c2ccccc2)c2ccc(O)cc2C1)c1ccc(O)cc1 | 191 to 192
CC(=O)c1cccc(-c2ccc(OC3SCC(O)C(O)C3O)cn2)c1 (configuration not stated) | 159 to 163
CC(=O)N(CCCCN1C(=O)c2ccccc2C1=O)c1ccccc1 | 83 to 84
O=C1c2ccccc2C(=O)N1c1n[nH]c2ccc(O)cc12 | > 270
CCOC(=O)C(Cc1ccc(CC(F)(F)C(F)(F)F)cc1)C(=O)c1cccc(Cl)c1 (configuration not stated) | 81 to 82
CCc1ncc(CCCO)n1C | 69 to 71
c1ccc2c(CCN=c3sc4ccccc4s3)c[nH]c2c1 | 149 to 150
COC(=O)[C@H]1CC[C@@H](n2nc(-c3c(-c4ccccc4)nn4ccccc34)ccc2=O)[C@H](O)C1 (relative stereo) | 169 to 172
O=Cc1cc(C(=O)CCl)c[nH]1 | 178 to 179
Cc1cc(-c2cccc(C3=Nc4ccc(-c5ccccc5F)cc4NC(=O)C3)c2)on1 | 222 to 224
CC(=O)c1cc(-c2ccncc2)sc1Oc1ccccc1 | 103 to 105
C[C@H]1[C@@H](C(C)(C)O)CCN1c1ccc(C#N)c(Cl)c1F | 125 to 126
CCOC(=O)CCC(C)C1CCC2C3C(O)C(CC)C4CC(O)CCC4(C)C3CCC12C (configuration not stated) | 55 to 57

SMILES | melting point [°C]
COC(=O)c1cc(O)n[nH]1 | 229 to 231
O=C(Nc1cccc(-c2cccc(-n3c(=O)c(Cc4cccnc4)nc4cccnc43)c2)c1)C(F)(F)F | 138 to 144
NCc1cccc(Cn2ccc(OCc3ccc(F)cc3F)c(Br)c2=O)c1F | 160 to 163
O=Cc1cc(N2CCN(Cc3ccccc3)CC2)ccc1O | 101 to 103
CCCC(C)(c1ccc(Oc2ccc([N+](=O)[O-])cc2)cc1)c1ccc(Oc2ccc([N+](=O)[O-])cc2)cc1 | 151 to 152
CC(=O)Nc1ccc2cccc(N3CCN(C)CC3)c2c1 | 173 to 177
O=C(O)[C@H](Cc1ccccc1)NS(=O)(=O)c1ccc(N2CCC(c3ccccc3)CC2)cc1 | 167 to 169
O=C(O)c1cnn2c(C(F)(F)F)cc(-c3ccc(C(F)(F)F)c(F)c3)nc12 | 212
O=C(c1ccccc1)N1CC(=O)N(CCc2ccccc2)C(=O)C1 | 102
O=C(/C=C/c1ccc(Br)cc1)c1cnc2sccn12 | 213 to 215
O=c1[nH]c2ccccc2n1CCCN1CC=C(n2c(=O)[nH]c3ccccc32)CC1 | 207
C#Cc1cn(C2OC(CO)C(O)C2=C)c(=O)[nH]c1=O (configuration not stated) | 172 to 174
CCCNc1nc(OCC)nc2cscc12 | 140 to 142
COc1cc(CCCC2OCCO2)ccc1OCc1nc(-c2ccccc2)oc1C | 74 to 75
Clc1ccccc1-c1cc(-c2ccccc2)c(-c2ccccc2Cl)nn1 | 176 to 178
Cc1cc2c(cc1C#Cc1ccccc1)NC(=O)CC(c1cccc(-c3nccn3C)c1)=N2 | 202 to 205
Cc1nnc2n1-c1ccc(I)cc1C(c1ccccc1Cl)=NC2 | 290 to 292
Clc1ccccc1C(c1ccc(-c2ccccc2)cc1)n1ccnc1 (configuration not stated) | 90
Cc1ccccc1-c1nc2c(s1)C(S(=O)(=O)Cc1ccccc1)Cc1c(OCC(=O)O)cccc1-2 (configuration not stated) | 192 to 193
O=C(c1ccccc1)c1ccc(Nc2ccccc2NC(=O)C(F)(F)F)cc1 | 187 to 191
N#Cc1cnc2ccsc2c1NCc1ccc(Cl)cc1Cl | 215 to 216
COCN(C(=O)Nc1ccc(Cl)cc1)C(=O)c1c(Cl)cccc1Cl | 122

Next, values leading:

melting point [°C] | SMILES
120 to 125 | Cc1ccc(C(N)=S)cc1C
199 to 201 | Nc1ccc(-c2ccncc2)nn1
144 to 147 | CCOC(=O)OC12Oc3cc(C(C)C)ccc3C1(O)C(=O)c1ccccc12 (configuration not stated)
219 to 220 | Cc1ccc(C(=O)NN=C(N)CS(=O)(=O)c2ccccc2)o1
253 | COC(=O)Cn1c(=O)[nH]c2ccc(C(=O)c3c(C)c(OC)c4ccccn34)cc2c1=O
58 to 60 | CCN(CC(C)Nc1c(C)cccc1C)C(C)=O (configuration not stated)
330 to 332 | Nc1nc(-c2ccccc2)nc2c1=NCC(=O)N=2
125 to 127 | CC(C)(C)n1nc(Cc2ccncc2)c(C(N)=O)c1N
123 to 125 | CC(C)Cc1nc2c(N)nc3ccccc3c2s1
113 to 114 | COC(=O)COc1ccc2ccc(O)c(C(C)=O)c2c1
54 to 57 | CN(C)S(=O)(=O)OCCOc1ccc(Cl)cc1
85 to 90 | COc1ccc(C(=O)N(C)c2ccc(CO)cc2)cc1
231 to 233 | CCOC(=O)N1CCC(Nc2nc3ccccc3[nH]2)CC1
172 to 175 | Cc1nnc2ncc(-c3ccccc3Cl)nn12
272 to 274 | Cc1ccc(Sc2cncc3sc(C(=O)O)cc23)cc1
214 to 218 | CCCc1ccc(C(=O)Nc2ccc3c(c2)nc(C)n3C)cc1
169 to 171 | CCOC(=O)CCCNC(=O)Cn1c(-c2ccc(Cl)cc2)nc2cccnc21

melting point [°C] | SMILES
131 to 132 | CCOC(=O)c1cc2c(C=O)ccc(OCc3ccccc3)c2[nH]1
246 to 248 | N#CN=C(N)NCc1ccc2c(c1)Nc1nccnc1S2
162 to 164 | COc1cc(C(=O)NCC2NC(C)Cc3ccccc32)cc(OC)c1OC (configuration not stated)
152 to 153 | CCOC(=O)C1(C(=O)OCC)CC(c2ccc(Cl)cc2N)=CN1C(C)=O
63 to 65 | Cc1ccc(C)n1CCNC(=O)CN(C)C
125 to 128 | CN(C)CCc1[nH]c2ccccc2c1CSC(=S)N(C)C
67 to 68 | N#CCC(=N)c1cccc(F)c1
122 to 124 | CCCc1c(O)ccc2ccc(OCC(=O)OC)cc12
141 to 142 | COc1ccc(S(=O)(=O)Nc2cc(C)c(S(=O)(=O)C[N+](=O)[O-])c(C)c2)cc1
116 to 117 | COC(=O)c1nc(C)c(-c2ccnc3ccccc23)s1
112 to 115 | COc1cc(C)n2nc(SCc3ccccc3)nc2n1
37 to 38 | CCSc1nccc(C)c1N
126 to 129 | COc1ccc(C(=O)C2=CCCCC2)c(Cl)c1Cl
275 to 278 | COc1ccc(-c2nc(C)c(C(=O)Nc3nnn[nH]3)s2)cc1
226 to 228 | Cc1nc(N)nc(N)c1-c1cc(Cl)ccc1Cl
125 | O=C(O)C1=C(CCl)CS[C@@H]2[C@H](NC(=S)Cc3cc(Cl)ccc3Cl)C(=O)N12
46 to 48 | CC(=O)C(=Cc1ccc(C(F)(F)F)cc1)C(C)=O
